Data from patent publication US20230279020A9, “CARM1 INHIBITORS AND USES THEREOF” (Epizyme, Inc., priority 2013, published 2023).

Biological target: Human CARM1 (PRMT4) (Homo sapiens (Human), UniProt Q86X55)
Test: CARM1 enzyme assay on peptide substrate (3H-SAM Flashplate)
Details: Biochemical potencies, classification codes; read-out: Biochem IC50

Chain of Human CARM1 (PRMT4) (Q86X55 other isoform, or with tags, fused parts or gaps isoform Q86X55-1): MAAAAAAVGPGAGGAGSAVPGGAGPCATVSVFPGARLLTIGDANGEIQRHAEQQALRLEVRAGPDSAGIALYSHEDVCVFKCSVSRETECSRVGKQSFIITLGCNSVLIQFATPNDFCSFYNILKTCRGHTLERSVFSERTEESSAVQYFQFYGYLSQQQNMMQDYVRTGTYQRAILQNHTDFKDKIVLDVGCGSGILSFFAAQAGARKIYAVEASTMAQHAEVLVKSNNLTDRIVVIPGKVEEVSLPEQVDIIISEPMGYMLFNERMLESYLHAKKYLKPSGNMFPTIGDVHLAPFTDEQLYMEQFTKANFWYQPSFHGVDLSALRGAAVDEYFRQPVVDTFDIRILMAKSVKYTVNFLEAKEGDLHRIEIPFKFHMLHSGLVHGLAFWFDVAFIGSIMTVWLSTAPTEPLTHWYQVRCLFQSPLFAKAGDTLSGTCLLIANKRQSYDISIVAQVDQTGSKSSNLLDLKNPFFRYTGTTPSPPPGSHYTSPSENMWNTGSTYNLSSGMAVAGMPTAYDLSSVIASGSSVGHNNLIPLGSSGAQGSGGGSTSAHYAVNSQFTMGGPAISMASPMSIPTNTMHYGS

Row | Compound | IC50 [nM]
1 | CNC[C@@H](O)COc1ccc(F)c(-c2nc(-c3c(C)noc3C)cc(N3Cc4cnn(C)c4C3)n2)c1 [Example 275-3] | < 100
2 | CCc1onc(C)c1-c1nc(-c2cccc(OCC(O)CNC)c2)nc(NC2CCOCC2)c1C (stereo not shown) [Example 276-1a] | < 100
3 | CCOC(=O)N1CCOC[C@@H]1CNc1nc(-c2cccc(OC[C@H](O)CNC)c2)nc(-c2c(C)noc2C)c1C [Example 277-1a] | < 100
4 | CCOC(=O)N1CCOC[C@@H]1CNc1nc(-c2cccc(OC[C@@H](O)CNC)c2)nc(-c2c(C)noc2C)c1C [Example 278-1a] | < 100
5 | CNC[C@@H](O)COc1cccc(-c2nc(NC3CCN(C(=O)OC)CC3)cc(-c3c(C)nnn3C)n2)c1 [Example 278-3] | < 100
6 | CNCC(O)COc1cccc(-c2nc(NC3C[C@@H](O)[C@H](O)C3)c(C)c(-c3c(C)noc3C)n2)c1 (stereo partly shown) [Example 280-1a] | < 100
7 | CNCC(O)COc1cccc(-c2nc(N[C@H]3[C@@H]4CN(C(=O)OC)C[C@@H]43)c(C)c(-c3c(C)noc3C)n2)c1 (stereo partly shown) [Example 282-1a] | < 100
8 | CNCC(O)COc1cccc(-c2nc(NCC3CCN(C4CC4)CC3)c(C)c(-c3c(C)noc3C)n2)c1 (stereo not shown) [Example 283-1a] | < 100
9 | CNCC(O)COc1cccc(-c2nc(OCC3CCN(C(=O)OC)CC3)c(C)c(-c3c(C)noc3C)n2)c1 (stereo not shown) [Example 284-1a] | < 100
10 | CNCC(O)COc1cccc(-c2nc(OCC3CCN(C(=O)N(C)C)CC3)c(C)c(-c3c(C)noc3C)n2)c1 (stereo not shown) [Example 285-1a] | < 100
11 | CNCC(O)COc1cccc(-c2nc(OCC3CCN(S(C)(=O)=O)CC3)c(C)c(-c3c(C)noc3C)n2)c1 (stereo not shown) [Example 286-1a] | < 100
12 | CNCC(O)COc1cccc(-c2nc(OCC3CCN(C(C)=O)CC3)c(C)c(-c3c(C)noc3C)n2)c1 (stereo not shown) [Example 287-1a] | < 100
13 | CNCC(O)COc1cccc(-c2nc(OCC3CCN(CC(F)F)CC3)c(C)c(-c3c(C)noc3C)n2)c1 (stereo not shown) [Example 288-1a] | < 100
14 | CNCC(O)COc1cccc(-c2nc(OCC3CCNCC3)c(C)c(-c3c(C)noc3C)n2)c1 (stereo not shown) [Example 289-1a] | < 100
15 | CNCC(O)COc1cccc(-c2nc(OCC3CCN(C4CC4)CC3)c(C)c(-c3c(C)noc3C)n2)c1 (stereo not shown) [Example 303-1a] | < 100
16 | CNCC(O)COc1cccc(-c2nc(NC[C@@H]3CN(C(=O)OC)CCO3)c(C)c(-c3c(C)noc3C)n2)c1 (stereo partly shown) [Example 306-1a] | < 100
17 | CNCC(O)COc1cc(Cl)cc(-c2nc(N[C@@H]3CCOC3)c(C)c(-c3ccncc3)n2)c1 (stereo partly shown) [Example 331-1a] | < 100
18 | CNCC(O)COc1cccc(-c2nc(N[C@@H]3CCOC3)c(C)c(-c3ccncc3)n2)c1 (stereo partly shown) [Example 332-1a] | < 100
19 | CNCC(O)COc1cc(Cl)cc(-c2nc(-c3ccncc3)c(C)c(N(C)[C@H]3CCOC3)n2)c1 (stereo partly shown) [Example 334-1a] | < 100
20 | CNCC(O)COc1cccc(-c2nc(NC3CCOC3)c(C)c(-c3cn(C)nn3)n2)c1 (stereo not shown) [Example 335-1a] | < 100
21 | CNCC(O)COc1cccc(-c2nc(N[C@@H]3CCOC3)c(C)c(-c3cn[nH]c3)n2)c1 (stereo partly shown) [Example 338-1a] | < 100
22 | CNCC(O)COc1cccc(-c2nc(-c3ccncc3)c(C)c(N(C)[C@@H]3CCOC3)n2)c1 (stereo partly shown) [Example 339-1a] | < 100
23 | CNCC(O)COc1cccc(-c2nc(N[C@@H]3CCOC3)c(C)c(-c3cncc(C(=O)OC)c3)n2)c1 (stereo partly shown) [Example 340-1a] | < 100
24 | CNCC(O)COc1cccc(-c2nc(N[C@@H]3CCOC3)c(C)c(-c3cncc(C#N)c3)n2)c1 (stereo partly shown) [Example 341-1a] | < 100
25 | CNCC(O)COc1cccc(-c2nc(N[C@@H]3CCOC3)c(C)c(-c3cncnc3)n2)c1 (stereo partly shown) [Example 350-1a] | < 100
26 | CNCC(O)COc1cccc(-c2nc(NC3CCOC3)c(C)c(N3CCN[C@@H](C)C3)n2)c1 (stereo partly shown) [Example 351-1a] | < 100
27 | CNCC(O)COc1cccc(-c2nc(NC3CCOC3)c(C)c(N3CCNC[C@H]3C)n2)c1 (stereo partly shown) [Example 352-1a] | < 100
28 | CNCC(O)COc1cccc(-c2nc(N[C@@H]3CCOC3)c(C)c(-c3cnc4[nH]ccc4c3)n2)c1 (stereo partly shown) [Example 355-1a] | < 100
29 | CNCC(O)COc1cccc(-c2nc(N[C@@H]3CCOC3)c(C)c(-c3cnc(OC)nc3)n2)c1 (stereo partly shown) [Example 356-1a] | < 100
30 | CNCC(O)COc1cccc(-c2nc(N[C@@H]3CCOC3)c(C)c(N3CCC[C@@H](O)C3)n2)c1 (stereo partly shown) [Example 358-1a] | < 100

The next lines start with the values.

Row | IC50 [nM] | Compound
31 | < 100 | CNC[C@@H](O)COc1ccc(F)c(-c2nc(-c3c(C)noc3C)cc(N3CC4(CCOCC4)C3)n2)c1 [Example 277-3]
32 | < 100 | CNCC(O)COc1cccc(-c2nc(N[C@H]3CCOC[C@@H]3F)c(C)c(-c3c(C)noc3C)n2)c1 (stereo partly shown) [Example 279-1a]
33 | < 100 | CNC[C@@H](O)COc1ccc(Cl)c(-c2nc(-c3c(C)noc3C)c(C)c(N3Cc4[nH]c(=O)[nH]c(=O)c4C3)n2)c1 [Example 279-3]
34 | < 100 | CNC[C@@H](O)COc1ccc(F)c(-c2nc(-c3c(C)noc3C)c(C)c(N3CC4(CCN(CC(F)F)CC4)C3)n2)c1 [Example 280-3]
35 | < 100 | CNCC(O)COc1cccc(-c2nc(N[C@H]3CCOC3=O)c(C)c(-c3c(C)noc3C)n2)c1 (stereo partly shown) [Example 281-1a]
36 | < 100 | CNC[C@@H](O)COc1ccc(F)c(-c2nc(-c3c(C)noc3C)c(C)c(N3CC4(CCN(C(=O)OC(C)C)CC4)C3)n2)c1 [Example 281-3]
37 | < 100 | CCOC(=O)N1CCC2(CC1)CN(c1nc(-c3cc(OC[C@H](O)CNC)ccc3F)nc(-c3c(C)noc3C)c1C)C2 [Example 282-3]
38 | < 100 | CNC[C@@H](O)COc1ccc(Cl)c(-c2nc(-c3c(C)noc3C)c(C)c(N3CC4(CCN(CC(F)F)CC4)C3)n2)c1 [Example 283-3]
39 | < 100 | CNC[C@@H](O)COc1ccc(Cl)c(-c2nc(-c3c(C)noc3C)c(C)c(N3CC4(CCN(C(=O)OC(C)C)CC4)C3)n2)c1 [Example 284-3]
40 | < 100 | CCOC(=O)N1CCC2(CC1)CN(c1nc(-c3cc(OC[C@H](O)CNC)ccc3Cl)nc(-c3c(C)noc3C)c1C)C2 [Example 285-3]
41 | < 100 | CNC[C@@H](O)COc1ccc(Cl)c(-c2nc(-c3c(C)noc3C)c(C)c(N3CC4(CCN(C(=O)OC(C)C)C4)C3)n2)c1 [Example 286-3]
42 | < 100 | CCOC(=O)N1CCC2(C1)CN(c1nc(-c3cc(OC[C@H](O)CNC)ccc3Cl)nc(-c3c(C)noc3C)c1C)C2 [Example 287-3]
43 | < 100 | CNC[C@@H](O)COc1ccc(Cl)c(-c2nc(-c3c(C)noc3C)c(C)c(N3CCC4(CCOC4)C3)n2)c1 (stereo partly shown) [Example 288-3]
44 | < 100 | CNC[C@@H](O)COc1ccc(Cl)c(-c2nc(-c3c(C)noc3C)c(C)c(N3CCC4(CCCO4)C3)n2)c1 (stereo partly shown) [Example 289-3]
45 | < 100 | CNCC(O)COc1cccc(-c2nc(NC3CCOC(C)(C)C3)c(C)c(-c3c(C)noc3C)n2)c1 (stereo not shown) [Example 290-1a]
46 | < 100 | CNC[C@@H](O)COc1ccc(Cl)c(-c2nc(-c3c(C)noc3C)c(C)c(N3CC4(CCCCO4)C3)n2)c1 [Example 290-3]
47 | < 100 | CNCC(O)COc1cccc(-c2nc(N[C@@H]3CCOC3=O)c(C)c(-c3c(C)noc3C)n2)c1 (stereo partly shown) [Example 291-1a]
48 | < 100 | CNCC(O)COc1cccc(-c2nc(NC3CCC3)c(C)c(-c3c(C)noc3C)n2)c1 (stereo not shown) [Example 292-1a]
49 | < 100 | CNCC(O)COc1cccc(-c2nc(NC3CC3)c(C)c(-c3c(C)noc3C)n2)c1 (stereo not shown) [Example 293-1a]

Row | IC50 [nM] | Compound
50 | < 100 | CNC[C@@H](O)COc1ccc(Cl)c(-c2nc(-c3c(C)noc3C)c(C)c(N3Cc4cn(S(C)(=O)=O)nc4C3)n2)c1 [Example 293-3]
51 | < 100 | CNCC(O)COc1cccc(-c2nc(-c3c(C)noc3C)c(C)c(N3CCC4(CC3)CN(C3CC3)C4)n2)c1 (stereo not shown) [Example 294-1a]
52 | < 100 | CNC[C@@H](O)COc1ccc(F)c(-c2nc(-c3c(C)noc3C)c(Cl)c(N3CC4(CCOCC4)C3)n2)c1 [Example 294-3]
53 | < 100 | CCOC(=O)N1CC2(CCCN(c3nc(-c4cccc(OCC(O)CNC)c4)nc(-c4c(C)noc4C)c3C)C2)C1 (stereo not shown) [Example 295-1a]
54 | < 100 | CNC[C@@H](O)COc1ccc(F)c(-c2nc(-c3c(C)noc3C)c(Cl)c(N3Cc4nccnc4C3)n2)c1 [Example 295-3]
55 | < 100 | CCS(=O)(=O)N1CC2(CCCN(c3nc(-c4cccc(OCC(O)CNC)c4)nc(-c4c(C)noc4C)c3C)C2)C1 (stereo not shown) [Example 296-1a]
56 | < 100 | CNC[C@@H](O)COc1ccc(Cl)c(-c2nc(-c3c(C)noc3C)c(C)c(N3Cc4cc(C)cnc4C3)n2)c1 [Example 296-3]
57 | < 100 | CNCC(O)COc1cccc(-c2nc(-c3c(C)noc3C)c(C)c(N3CCCC4(CN(C(=O)N(C)C)C4)C3)n2)c1 (stereo not shown) [Example 297-1a]
58 | < 100 | CNC[C@@H](O)COc1ccc(Cl)c(-c2nc(-c3c(C)noc3C)c(F)c(N3Cc4nccnc4C3)n2)c1 [Example 297-3]
59 | < 100 | CNCC(O)COc1cccc(-c2nc(-c3c(C)noc3C)c(C)c(N3CC(CO)(CNC(=O)N(C)C)C3)n2)c1 (stereo not shown) [Example 298-1a]
60 | < 100 | CNCC(O)COc1cccc(-c2nc(-c3c(C)noc3C)c(C)c(N3CC4(CN(C(=O)OC)C4)C3)n2)c1 (stereo not shown) [Example 299-1a]
61 | < 100 | CNCC(O)COc1cccc(-c2nc(NCC3(OC)CCOCC3)c(C)c(-c3c(C)noc3C)n2)c1 (stereo not shown) [Example 300-1a]
62 | < 100 | CNCC(O)COc1cccc(-c2nc(NCC3(N4CCC4)CCOCC3)c(C)c(-c3c(C)noc3C)n2)c1 (stereo not shown) [Example 301-1a]
63 | < 100 | CNCC(O)COc1cccc(-c2nc(NCC3(N4CC(F)(F)C4)CCOCC3)c(C)c(-c3c(C)noc3C)n2)c1 (stereo not shown) [Example 302-1a]
64 | < 100 | CNC[C@H](O)COc1ccc(Cl)c(-c2nc(NC3CCN(C(=O)OC)CC3)c(Cl)c(-c3c(C)noc3C)n2)c1 [Example 305-1a]
65 | < 100 | CNCC(O)COc1cccc(-c2nc(N[C@@H]3CCNC3)c(C)c(-c3c(C)noc3C)n2)c1 (stereo partly shown) [Example 307-1a]
66 | < 100 | CNCC(O)COc1cccc(-c2nc(-c3c(C)noc3C)c(C)c(N(C)C)n2)c1 (stereo not shown) [Example 308-1a]
67 | < 100 | CNCC(O)COc1cccc(-c2nc(-c3c(C)noc3C)c(C)c(N3CC4(CN(C(=O)N(C)C)C4)C3)n2)c1 (stereo not shown) [Example 309-1a]
